Values after ≈ are worked out from the molar mass of the structure shown. Read-outs that look alike come from different tables or passages of the source.
How the values were obtained:
[1] = system: 13 M. tuberculosis pan-susceptible strains; settings: adopted for 7H11 agar; cited from earlier work
[2] = system: 13 M. tuberculosis pan-susceptible strains; experiment: MIC determination on HSTB agar, susceptible strains; type: cell-based; settings: for MIC: Mycobacterium tuberculosis, HSTB agar
[3] = system: 55 M. tuberculosis clinical isolates; type: cell-based
[4] = strains Susceptible by the BACTEC 300 μg/ml
[5] = strains Susceptible by the BACTEC 900 μg/ml

CO[C@H]1/C=C/O[C@@]2(C)Oc3c(C)c(O)c4c(O)c(c(/C=N/N5CCN(C)CC5)c(O)c4c3C2=O)NC(=O)/C(C)=C\C=C\[C@H](C)[C@H](O)[C@@H](C)[C@@H](O)[C@@H](C)[C@H](OC(C)=O)[C@@H]1C [RMP, rifampin]
critical concentration of RMP [1]: 1.0 µg/mL
critical concentration of RMP [2]: 2.0 µg/mL

NNC(=O)c1ccncc1 [INH, isoniazid]
MIC ([2]; 0.2: 13 strains, read-out: MICs (mcg/ml) of INH for 13 Susceptible Strains, HSTB): 0.2 µg/mL (≈ 1.46 µM)
MIC ([2]; all 13 strains, read-out: MIC of INH): 0.2 µg/mL

NC(=O)c1cnccn1 [PZA, pyrazinamide]
Number of strains by the agar proportion method, 900 μg/ml Susceptible [3, 4]: 25
Number of strains by the agar proportion method, 1200 μg/ml Susceptible [3, 4]: 25
Number of strains by the agar proportion method, 900 μg/ml Susceptible [3, 5]: 26
Number of strains by the agar proportion method, 1200 μg/ml Susceptible [3, 5]: 27

Source: patent US6951733B2, “Method for testing drug susceptibility of Mycobacterium tuberculosis” (priority 2000, dated 2005)
